Experiments:
[1] = tested on: HCT116 p53+/+ colon cancer cells; assay: Proliferation assay (MTS, 96 h); assay type: cell-based, human; conditions: for IC50: Homo sapiens, HCT-116, 96 h incubation, MTS, mean ±SD (3 experiments); for Therapeutic index NHDF vs. HCT116 p53+/+: NHDF cell IC50 divided by HCT116 p53+/+ IC50
How it was run: (§1)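 HCT116 p53+/+, HCT116 p53−/− and NHDF cells were seeded 24 h before a 96 h compound exposure at 37 °C, with final DMSO <0.05%. Viability was read by MTS absorbance at 490 nm after 1 h; IC50 was the concentration reducing absorbance to 50% of untreated control.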

[2] = tested on: HCT116 p53−/− colon cancer cells; assay: Proliferation assay (MTS, 96 h); assay type: cell-based, human; conditions: for IC50: Homo sapiens, HCT-116, 96 h, 96 h incubation, MTS, mean ±SD (3 experiments); for Therapeutic index NHDF vs. HCT116 p53−/−: NHDF cell IC50 divided by HCT116 p53−/− IC50
How it was run: as §1

[3] = tested on: Raji Burkitt's lymphoma cells; assay: Proliferation assay (MTT, 72 h); assay type: cell-based; conditions: Homo sapiens, 72 h incubation, mean ±SD (3 experiments)
How it was run: (§2)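 Cells seeded 24 h before treatment, then exposed at 37 °C for 72 h (SK-N-MC, Raji, HeLa) or 96 h (HCT116, NHDF); final DMSO <0.05%. Read-outs: MTT at 570 nm (SK-N-MC, Raji), crystal violet at 595 nm (HeLa), MTS at 490 nm (HCT116, NHDF); IC50 is 50% absorbance versus untreated control, triplicates repeated three times.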

[4] = tested on: SK-N-MC neuroepithelioma cells; assay: Proliferation assay (MTT, 72 h); assay type: cell-based; conditions: Homo sapiens, 72 h incubation, mean ±SD (3 experiments)
How it was run: as §2

[5] = tested on: HeLa cervical carcinoma cells; assay: Proliferation assay (crystal violet, 72 h); assay type: cell-based; conditions: Homo sapiens, 72 h incubation, mean ±SD (3 experiments)
How it was run: as §2

[6] = tested on: normal human dermal fibroblast (NHDF) cells; assay: Proliferation assay (MTS, 96 h), normal mortal cells; assay type: cell-based; conditions: 96 h incubation, mean ±SD (3 experiments)
How it was run: as §1

SK-N-MC cells = assay: Inhibition of cellular 59Fe uptake from 59Fe2-Tf; assay type: cell-based, human; conditions: chelator 25 µM; for Internalized 59Fe uptake from 59Fe2-Tf (% of the control): 59Fe2-Tf 0.75 µM, 3 h/37°C
Method: The iron transport protein, Tf (Sigma-Aldrich), was labeled with ^59Fe (PerkinElmer Life and Analytical Sciences, Boston, MA) to form ^59Fe2-Tf using standard methods, [7]. Unbound ^59Fe was removed by passage through a Sephadex G25 column and was followed by exhaustive dialysis, [7].
The ability of the chelators to prevent the cellular uptake of ^59Fe from ^59Fe2-Tf was examined using standard methods, [14], [17], [18], [50]. A monolayer of SK-N-MC cells was incubated with medium containing ^59Fe2-Tf (0.75 µM) and the chelator (25 µM) for 3 h at 37°C. The medium was then removed and the cells were washed four times with ice-cold PBS. The cells were then incubated for 30 min at 4°C with the general protease, Pronase (1 mg/mL; Sigma-Aldrich), to remove membrane-bound ^59Fe. The cells were removed using a plastic spatula and centrifuged at 14,000 rpm/1 min to separate internalized from membrane-bound ^59Fe. The cell pellet was resuspended in 1 mL of PBS and the internalized ^59Fe was measured on a γ-scintillation counter. Internalized ^59Fe uptake was calculated as a percentage of the control (medium alone). Again, the novel ligands were compared to DFO and Dp44mT as their ability to inhibit cellular ^59Fe uptake has been extensively characterized using SK-N-MC cells, [14], [17], [18], [50].
Figure 8 Effect of (A) series 1, (B) series 2, (C) series 3, (D) series 4, (E) series 5 and (F) series 6 chelators, relative to the controls DFO and Dp44mT, on ^59Fe uptake from ^59Fe-transferrin by SK-N-MC cells. Cells were incubated for 3 h/37°C with ^59Fe-transferrin (0.75 µM) in the presence or absence of the chelators (25 µM). At the end of this incubation, cells were washed 4 times with ice-cold PBS. Internalization of ^59Fe was assessed by incubation for 30 min/4°C with the protease, Pronase (1 mg/mL). Cellular ^59Fe was then assessed using a γ-scintillation counter. Results are mean ±SD (3 experiments).

With `S=C(NN=C(c1ccccn1)c1ccccn1)N1CCN(c2cnccn2)CC1` [1e] the IC50 [1] was 38 ± 3 nM, the IC50 [2] was 31 ± 3 nM and the IC50 [3] was 40 ± 20 nM. The IC50 [4] was 70 ± 50 nM, the IC50 [5] was 720 ± 70 nM and the IC50 ([6]; Homo sapiens, NHDF, 96 h) was 14 ± 3 nM.
For `CN(C)C(=S)NN=C(c1ccccn1)c1ccccn1` [Dp44mT, di-2-pyridylketone 4,4-dimethyl-3-thiosemicarbazone, reference compound], the IC50 [1] was 2 ± 1 nM, the “Therapeutic index NHDF vs. HCT116 p53+/+” value [1] was 7690 and the IC50 [2] was 5 ± 2 nM. For the same compound, the “Therapeutic index NHDF vs. HCT116 p53−/−” value [2] was 3076, the IC50 [3] was 7 ± 1 nM and the IC50 [4] was 12 ± 1 nM. For the same compound, the IC50 [5] was 40 ± 10 nM, the IC50 ([6]; Homo sapiens, NHDF, 96 h) was 15400 ± 5060 nM and the “Internalized 59Fe uptake from 59Fe2-Tf (% of the control)” value (SK-N-MC cells) was 6%.
In the case of `CN(C(=S)N/N=C/c1cnc2ccccc2n1)C1CCCCC1` [5f], the IC50 [1] is reported as 1240 ± 450 nM, the IC50 [2] is reported as 1020 ± 540 nM and the IC50 [3] is reported as 720 ± 290 nM. The IC50 [4] was 2040 ± 340 nM, the IC50 [5] was 4090 ± 2070 nM and the IC50 ([6]; Homo sapiens, NHDF, 96 h) was 500 ± 210 nM. The “Inhibition of 59Fe uptake compared with controls” value (SK-N-MC cells) was “comparable inhibition of ^59Fe uptake to that of DFO”.
`CCN1CCN(C(=S)N/N=C/c2ccc3ccccc3n2)CC1` [2a] showed an IC50 [1] of 1440 ± 690 nM, an IC50 [2] of 3550 ± 1230 nM and an IC50 [3] of 60 ± 20 nM. For the same compound, the IC50 [4] was 2540 ± 860 nM, the IC50 [5] was 430 ± 160 nM and the IC50 ([6]; Homo sapiens, NHDF, 96 h) was 9620 ± 1800 nM. For the same compound, the “Inhibition of 59Fe uptake compared with controls” value (SK-N-MC cells) was “comparable ability to inhibit ^59Fe uptake to the control medium”.
For `CN(C(=S)N/N=C/c1ccccc1O)C1CCCCC1` [6f], the IC50 [1] was > 25000 nM, the IC50 [2] was > 25000 nM and the IC50 [3] was 690 ± 510 nM. The IC50 [4] was > 6250 nM, the IC50 [5] was 10100 ± 3600 nM and the IC50 ([6]; Homo sapiens, NHDF, 96 h) was > 25000 nM. The “Internalized 59Fe uptake from 59Fe2-Tf (% of the control)” value (SK-N-MC cells) was 3.6–11.5%.
`CN(C(=S)N/N=C/c1ccc2ccccc2n1)C1CCCCC1` [2f] was tested, and the IC50 [1] was 26 ± 1 nM, the “Therapeutic index NHDF vs. HCT116 p53+/+” value [1] was 0.6 and the IC50 [2] was 35 ± 3 nM. For the same compound, the “Therapeutic index NHDF vs. HCT116 p53−/−” value [2] was 0.4, the IC50 [3] was 810 ± 100 nM and the IC50 [4] was 820 ± 190 nM. For the same compound, the IC50 [5] was 940 ± 450 nM, the IC50 ([6]; Homo sapiens, NHDF, 96 h) was 15 ± 5 nM and the “Inhibition of 59Fe uptake compared with controls” value (SK-N-MC cells) was “comparable inhibition of ^59Fe uptake to that of DFO”.
`CC(=O)N(O)CCCCCNC(=O)CCC(=O)N(O)CCCCCNC(=O)CCC(=O)N(O)CCCCCN` [DFO, desferrioxamine, reference compound] was tested, and the IC50 [1] was > 25000 nM, the IC50 [2] was > 25000 nM and the IC50 [3] was 4740 ± 1800 nM. For the same compound, the IC50 [4] was 15100 ± 5200 nM, the IC50 [5] was 14300 ± 960 nM and the IC50 ([6]; Homo sapiens, NHDF, 96 h) was > 25000 nM. The “Internalized 59Fe uptake from 59Fe2-Tf (% of the control)” value (SK-N-MC cells) was 83%.
With `S=C(N/N=C/c1ccc2ccccc2n1)N1CCN(c2ccccc2)CC1` [2b] the IC50 [1] was 42 ± 3 nM, the “Therapeutic index NHDF vs. HCT116 p53+/+” value [1] was 0.8 and the IC50 [2] was 90 ± 40 nM. For the same compound, the “Therapeutic index NHDF vs. HCT116 p53−/−” value [2] was 0.4, the IC50 [3] was 40 ± 10 nM and the IC50 [4] was 330 ± 20 nM. The IC50 [5] was 200 ± 70 nM, the IC50 [6] was 33 ± 7 nM and the “Inhibition of 59Fe uptake compared with controls” value (SK-N-MC cells) was “comparable inhibition of ^59Fe uptake to that of DFO”.
